Measured values taken from US20210045385A1, “PYRIDAZINONE-SUBSTITUTED KETOXIMES AS HERBICIDES” (FMC Corporation, priority 2018, published 2021).

Columns and labels:
Format in all cases: in vivo
[1] = system: barnyardgrass (Echinochloa crus-galli); assay: Test B flooded paddy test, visual plant response rating; settings: 250 g ai/ha, Flood, applied to paddy water, 2-leaf stage, evaluated after 13 to 15 days
Outline: (§1)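 Seedlings at 2 leaves; compound into paddy water (3 cm flood, maintained); 13–15 d greenhouse; visual score relative to controls.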

[2] = system: ducksalad (Heteranhera limosa); assay: as above; settings: 250 g ai/ha, Flood, applied to paddy water, 2-leaf stage, evaluated after 13 to 15 days
Outline: as §1

[3] = system: sedge, umbrella (small-flower umbrella sedge, Cyperus difformis); assay: as above; settings: 250 g ai/ha, Flood, applied to paddy water, 2-leaf stage, evaluated after 13 to 15 days
Outline: as §1

rice (Oryza sativa) = assay: as above; settings: 250 g ai/ha, Flood, applied to paddy water, 2-leaf stage, evaluated after 13 to 15 days
Outline: as §1

[4] = system: barnyardgrass (Echinochloa crus-galli); assay: Test A preemergence, visual plant response rating; settings: for Barnyardgrass plant response rating: 125 g ai/ha, preemergence, 0 to 100 scale, 0 no effect, 100 complete control; for Barnyardgrass plant response rating (0 to 100 scale): 500 g ai/ha Preemergence, approx. 10 days
Outline: (§2)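 Ratings 0–100 (100 = complete control), visual, vs untreated controls at ~10 days. Application pre- or postemergence; solvent mixture with surfactant; loam/sand medium.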

[5] = system: Italian ryegrass (Lolium multiflorum); assay: Test A preemergence, visual plant response rating; settings: for Ryegrass, Italian plant response rating: 125 g ai/ha, preemergence, 0 to 100 scale, 0 no effect, 100 complete control; for Ryegrass, Italian plant response rating (0 to 100 scale): 500 g ai/ha Preemergence, approx. 10 days
Outline: as §2

kochia (Kochia scoparia) [6] = assay: Test A preemergence, visual plant response rating; settings: for Kochia plant response rating: 125 g ai/ha, preemergence, 0 to 100 scale, 0 no effect, 100 complete control; for Kochia plant response rating (0 to 100 scale): 500 g ai/ha Preemergence, approx. 10 days
Outline: as §2

[7] = system: ragweed (common ragweed, Ambrosia elatior); assay: Test A preemergence, visual plant response rating; settings: for Ragweed plant response rating: 125 g ai/ha, preemergence, 0 to 100 scale, 0 no effect, 100 complete control; for Ragweed plant response rating (0 to 100 scale): 500 g ai/ha Preemergence, approx. 10 days
Outline: as §2

[8] = system: foxtail, giant (giant foxtail, Setaria faberii); assay: Test A preemergence, visual plant response rating; settings: for Foxtail, Giant plant response rating: 125 g ai/ha, preemergence, 0 to 100 scale, 0 no effect, 100 complete control; for Foxtail, Giant plant response rating (0 to 100 scale): 500 g ai/ha Preemergence, approx. 10 days
Outline: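 Preemergence: seeds in loam/sand blend given directed soil spray of compound in non-phytotoxic solvent with surfactant. Postemergence: plants 2–10 cm, one- to two-leaf stage, sprayed with same formulation. Visual injury rated vs untreated controls after ~10 days in greenhouse, 0 (no effect) to 100 (complete control).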

[9] = system: pigweed (Amaranthus retroflexus); assay: Test A preemergence, visual plant response rating; settings: for Pigweed plant response rating: 125 g ai/ha, preemergence, 0 to 100 scale, 0 no effect, 100 complete control; for Pigweed plant response rating (0 to 100 scale): 500 g ai/ha Preemergence, approx. 10 days
Outline: as §2

[10] = system: galium (catchweed bedstraw, Galium aparine); assay: Test A postemergence, visual plant response rating; settings: for Galium plant response rating (0 to 100 scale): 500 g ai/ha, postemergence, 0 is no effect, 100 is complete control; for Galium plant response rating: Postemergence, 125 g ai/ha, 0 to 100 scale (0 no effect, 100 complete control)
Outline: as §2

[11] = system: barnyardgrass (Echinochloa crus-galli); assay: Test A postemergence, visual plant response rating; settings: for Barnyardgrass plant response rating (0 to 100 scale): 500 g ai/ha, postemergence, 0 is no effect, 100 is complete control; for Barnyardgrass plant response rating: Postemergence, 125 g ai/ha, 0 to 100 scale (0 no effect, 100 complete control)
Outline: as §2

[12] = system: Italian ryegrass (Lolium multiflorum); assay: Test A postemergence, visual plant response rating; settings: for Ryegrass, Italian plant response rating (0 to 100 scale): 500 g ai/ha, postemergence, 0 is no effect, 100 is complete control; for Ryegrass, Italian plant response rating: Postemergence, 125 g ai/ha, 0 to 100 scale (0 no effect, 100 complete control)
Outline: as §2

[13] = system: wheat (Triticum aestivum); assay: Test A postemergence, visual plant response rating; settings: for Wheat plant response rating (0 to 100 scale): 500 g ai/ha, postemergence, 0 is no effect, 100 is complete control; for Wheat plant response rating: Postemergence, 125 g ai/ha, 0 to 100 scale (0 no effect, 100 complete control)
Outline: as §2

kochia (Kochia scoparia) [14] = assay: Test A postemergence, visual plant response rating; settings: for Kochia plant response rating (0 to 100 scale): 500 g ai/ha, postemergence, 0 is no effect, 100 is complete control; for Kochia plant response rating: Postemergence, 125 g ai/ha, 0 to 100 scale (0 no effect, 100 complete control)
Outline: as §2

[15] = system: ragweed (common ragweed, Ambrosia elatior); assay: Test A postemergence, visual plant response rating; settings: for Ragweed plant response rating (0 to 100 scale): 500 g ai/ha, postemergence, 0 is no effect, 100 is complete control; for Ragweed plant response rating: Postemergence, 125 g ai/ha, 0 to 100 scale (0 no effect, 100 complete control)
Outline: as §2

[16] = system: blackgrass (Alopecurus myosuroides); assay: Test A postemergence, visual plant response rating; settings: for Blackgrass plant response rating (0 to 100 scale): 500 g ai/ha, postemergence, 0 is no effect, 100 is complete control; for Blackgrass plant response rating: Postemergence, 125 g ai/ha, 0 to 100 scale (0 no effect, 100 complete control)
Outline: as §2

[17] = system: foxtail, giant (giant foxtail, Setaria faberii); assay: Test A postemergence, visual plant response rating; settings: for Foxtail, Giant plant response rating (0 to 100 scale): 500 g ai/ha, postemergence, 0 is no effect, 100 is complete control; for Foxtail, Giant plant response rating: Postemergence, 125 g ai/ha, 0 to 100 scale (0 no effect, 100 complete control)
Outline: as §2

corn (Zea mays) = assay: Test A postemergence, visual plant response rating; settings: for Corn plant response rating (0 to 100 scale): 500 g ai/ha, postemergence, 0 is no effect, 100 is complete control; for Corn plant response rating: Postemergence, 125 g ai/ha, 0 to 100 scale (0 no effect, 100 complete control)
Outline: as §2

[18] = system: pigweed (Amaranthus retroflexus); assay: Test A postemergence, visual plant response rating; settings: for Pigweed plant response rating (0 to 100 scale): 500 g ai/ha, postemergence, 0 is no effect, 100 is complete control; for Pigweed plant response rating: Postemergence, 125 g ai/ha, 0 to 100 scale (0 no effect, 100 complete control)
Outline: as §2

Row | Compound | Plant response rating, Barnyardgrass (0 to 100 scale, 0 is no effect, 100 is complete control) [1] | Plant response rating, Ducksalad (0 to 100 scale, 0 is no effect, 100 is complete control) [2] | Plant response rating, Sedge, Umbrella (0 to 100 scale, 0 is no effect, 100 is complete control) [3] | Plant response rating, Rice (0 to 100 scale, 0 is no effect, 100 is complete control) (rice (Oryza sativa)) | Barnyardgrass plant response rating [4] | Barnyardgrass plant response rating (0 to 100 scale) [4] | Ryegrass, Italian plant response rating [5] | Ryegrass, Italian plant response rating (0 to 100 scale) [5] | Kochia plant response rating (kochia (Kochia scoparia) [6]) | Kochia plant response rating (0 to 100 scale) (kochia (Kochia scoparia) [6]) | Ragweed plant response rating [7] | Ragweed plant response rating (0 to 100 scale) [7] | Foxtail, Giant plant response rating [8] | Foxtail, Giant plant response rating (0 to 100 scale) [8] | Pigweed plant response rating [9] | Pigweed plant response rating (0 to 100 scale) [9] | Galium plant response rating (0 to 100 scale) [10] | Galium plant response rating [10] | Barnyardgrass plant response rating (0 to 100 scale) [11] | Barnyardgrass plant response rating [11] | other results
1 | CON=C(c1c(O)c(C)nn(C)c1=O)c1cccc2ccc(Cl)cc12 [Compound 111] | 0 | 0 | 0 | 0 | 60 | 70 | 30 | 70 | 20 | 100 | 70 | 100 | 50 | 90 | 100 | 100 | 90 | 80 | 80 | 50 | Ryegrass, Italian plant response rating (0 to 100 scale) [12]: 90; Ryegrass, Italian plant response rating [12]: 70; Wheat plant response rating (0 to 100 scale) [13]: 60; Wheat plant response rating [13]: 0; Kochia plant response rating (0 to 100 scale) (kochia (Kochia scoparia) [14]): 60; Kochia plant response rating (kochia (Kochia scoparia) [14]): 40; Ragweed plant response rating (0 to 100 scale) [15]: 80; Ragweed plant response rating [15]: 80; Blackgrass plant response rating (0 to 100 scale) [16]: 100; Blackgrass plant response rating [16]: 80; Foxtail, Giant plant response rating (0 to 100 scale) [17]: 70; Foxtail, Giant plant response rating [17]: 60; Corn plant response rating (0 to 100 scale) (corn (Zea mays)): 30; Corn plant response rating (corn (Zea mays)): 20; Pigweed plant response rating (0 to 100 scale) [18]: 90; Pigweed plant response rating [18]: 60
2 | C#CCO/N=C(/c1c(O)c(C)nn(C)c1=O)c1cc(Br)cc2ccccc12 [Compound 112, 4-[(E)-(3-bromo-1-naphthalenyl)[(2-propyn-1-yloxy)imino]methyl]-5-hydroxy-2,6-dimethyl-3(2H)-pyridazinone] | 55 | 60 | 60 | 0 | 100 | 100 | 100 | 100 | 50 | 80 | 90 | 90 | 100 | 100 | 100 | 100 | 100 | 100 | 90 | 80 | Ryegrass, Italian plant response rating (0 to 100 scale) [12]: 100; Ryegrass, Italian plant response rating [12]: 90; Wheat plant response rating (0 to 100 scale) [13]: 70; Wheat plant response rating [13]: 50; Kochia plant response rating (0 to 100 scale) (kochia (Kochia scoparia) [14]): 90; Kochia plant response rating (kochia (Kochia scoparia) [14]): 70; Ragweed plant response rating (0 to 100 scale) [15]: 100; Ragweed plant response rating [15]: 100; Blackgrass plant response rating (0 to 100 scale) [16]: 100; Blackgrass plant response rating [16]: 100; Foxtail, Giant plant response rating (0 to 100 scale) [17]: 90; Foxtail, Giant plant response rating [17]: 90; Corn plant response rating (0 to 100 scale) (corn (Zea mays)): 90; Corn plant response rating (corn (Zea mays)): 20; Pigweed plant response rating (0 to 100 scale) [18]: 100; Pigweed plant response rating [18]: 90
3 | CCO/N=C(/c1c(O)c(C)nn(C)c1=O)c1cc(Br)cc2ccccc12 [Compound 113, 4-[(E)-(3-bromo-1-naphthalenyl)(ethoxyimino)methyl]-5-hydroxy-2,6-dimethyl-3(2H)-pyridazinone] | 85 | 75 | 50 | 60 | 90 | 100 | 80 | 100 | 30 | 90 | 90 | 90 | 100 | 100 | 80 | 100 | 100 | 100 | 90 | 90 | Ryegrass, Italian plant response rating (0 to 100 scale) [12]: 90; Ryegrass, Italian plant response rating [12]: 80; Wheat plant response rating (0 to 100 scale) [13]: 60; Wheat plant response rating [13]: 50; Kochia plant response rating (0 to 100 scale) (kochia (Kochia scoparia) [14]): 90; Kochia plant response rating (kochia (Kochia scoparia) [14]): 60; Ragweed plant response rating (0 to 100 scale) [15]: 100; Ragweed plant response rating [15]: 90; Blackgrass plant response rating (0 to 100 scale) [16]: 100; Blackgrass plant response rating [16]: 90; Foxtail, Giant plant response rating (0 to 100 scale) [17]: 90; Foxtail, Giant plant response rating [17]: 90; Corn plant response rating (0 to 100 scale) (corn (Zea mays)): 80; Corn plant response rating (corn (Zea mays)): 40; Pigweed plant response rating (0 to 100 scale) [18]: 100; Pigweed plant response rating [18]: 100
4 | C=CCON=C(c1c(O)c(C)nn(C)c1=O)c1cc(Br)cc2ccccc12 [Compound 114] | 70 | 85 | 85 | 35 | 90 | 100 | 70 | 100 | 10 | 20 | 80 | 90 | 100 | 100 | 10 | 80 | 100 | 100 | 90 | 80 | Ryegrass, Italian plant response rating (0 to 100 scale) [12]: 90; Ryegrass, Italian plant response rating [12]: 80; Wheat plant response rating (0 to 100 scale) [13]: 50; Wheat plant response rating [13]: 0; Kochia plant response rating (0 to 100 scale) (kochia (Kochia scoparia) [14]): 40; Kochia plant response rating (kochia (Kochia scoparia) [14]): 30; Ragweed plant response rating (0 to 100 scale) [15]: 100; Ragweed plant response rating [15]: 90; Blackgrass plant response rating (0 to 100 scale) [16]: 90; Blackgrass plant response rating [16]: 80; Foxtail, Giant plant response rating (0 to 100 scale) [17]: 90; Foxtail, Giant plant response rating [17]: 90; Corn plant response rating (0 to 100 scale) (corn (Zea mays)): 80; Corn plant response rating (corn (Zea mays)): 20; Pigweed plant response rating (0 to 100 scale) [18]: 90; Pigweed plant response rating [18]: 70
